Experiments:
Assay type in all cases: in vivo
[1] = test system: AMARE: Amaranthus retroflexus; test: Post-emergence herbicidal efficacy at 80 g/ha, AMARE; conditions: visual rating about 3 weeks after treatment vs untreated controls
In short: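 Post-emergence spray, one-leaf stage (2–3 wk after sowing), sandy loam, greenhouse; WP/EC in water + 0.5% additive, 600 l/ha. Visual % activity vs untreated controls at ~3 wk; 100% = plants dead, 0% = like control.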

[2] = test system: ABUTH: Abutilon theophrasti; test: Pre-emergence herbicide efficacy at 80 g/ha, ABUTH; conditions: scored visually after about 3 weeks
From the text: (§1) Seeds of monocotyledonous and dicotyledonous weed plants and crop plants were placed in plastic or organic planting pots and covered with soil. The compounds of the invention, formulated in the form of wettable powders (WP) or as emulsion concentrates (EC), were then applied to the surface of the covering soil as aqueous suspension or emulsion with addition of 0.5% additive at a water application rate equivalent to 600 l/ha. After the treatment, the pots were placed in a greenhouse and kept under good growth conditions for the test plants. After about 3 weeks, the efficacy of the preparations was scored visually in comparison with untreated controls as percentages. For example, 100% activity=the plants have died, 0% activity=like control plants. Tables D1 to D12 below show the effects of selected compounds of the general formula (I) according to Table 1 on various harmful plants and an application rate corresponding to 80 g/ha, which were obtained by the experimental procedure mentioned above.

[3] = test system: AMARE: Amaranthus retroflexus; test: Pre-emergence herbicide efficacy at 80 g/ha, AMARE; conditions: scored visually after about 3 weeks
From the text: as §1

[4] = test system: POLCO; test: Pre-emergence herbicide efficacy at 80 g/ha, POLCO; conditions: Polygonum convolvulus, scored visually after about 3 weeks
From the text: as §1

[5] = test system: VERPE: Veronica persica; test: Pre-emergence herbicide efficacy at 80 g/ha, VERPE; conditions: scored visually after about 3 weeks
From the text: as §1

[6] = test system: ABUTH: Abutilon theophrasti; test: Post-emergence herbicidal efficacy at 1280 g/ha, ABUTH; conditions: rated visually after about 3 weeks vs untreated controls, 100% = plants have died, 0% = like control plants
In short: (§2)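 Weeds grown in sandy loam in the greenhouse were sprayed at the one-leaf stage, 2 to 3 weeks after sowing, with WP or EC formulations in water plus 0.5% additive at 600 L/ha. Damage was scored visually about 3 weeks later against untreated controls (0% = like control, 100% = plants dead).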

[7] = test system: AMARE: Amaranthus retroflexus; test: Post-emergence herbicidal efficacy at 1280 g/ha, AMARE; conditions: rated visually after about 3 weeks vs untreated controls, 100% = plants have died, 0% = like control plants
In short: as §2

[8] = test system: DIGSA: Digitaria sanguinalis; test: Post-emergence herbicidal efficacy at 1280 g/ha, DIGSA; conditions: rated visually after about 3 weeks vs untreated controls, 100% = plants have died, 0% = like control plants
In short: as §2

[9] = test system: ECHCG: Echinochloa crus-galli; test: Post-emergence herbicidal efficacy at 1280 g/ha, ECHCG; conditions: rated visually after about 3 weeks vs untreated controls, 100% = plants have died, 0% = like control plants
In short: as §2

[10] = test system: KCHSC: Kochia scoparia; test: Post-emergence herbicidal efficacy at 1280 g/ha, KCHSC; conditions: visual rating about 3 weeks after treatment vs untreated controls
In short: as §2

[11] = test system: POAAN: Poa annua; test: Post-emergence herbicidal efficacy at 1280 g/ha, POAAN; conditions: visual rating about 3 weeks after treatment vs untreated controls
In short: as §2

[12] = test system: SETVI: Setaria viridis; test: Post-emergence herbicidal efficacy at 1280 g/ha, SETVI; conditions: visual rating about 3 weeks after treatment vs untreated controls
In short: as §2

[13] = test system: STEME: Stellaria media; test: Post-emergence herbicidal efficacy at 1280 g/ha, STEME; conditions: visual rating about 3 weeks after treatment vs untreated controls
In short: as §2

[14] = test system: VERPE: Veronica persica; test: Post-emergence herbicidal efficacy at 1280 g/ha, VERPE; conditions: visual rating about 3 weeks after treatment vs untreated controls
In short: as §2

[15] = test system: ABUTH: Abutilon theophrasti; test: Pre-emergence herbicide efficacy at 1280 g/ha, ABUTH; conditions: visual scoring after about 3 weeks vs untreated controls
In short: (§3)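 Seeds sown in sandy loam in pots and covered; compounds as WP or EC applied to covering soil surface as aqueous suspension/emulsion with 0.5% additive at 600 L/ha water. Greenhouse growth ~3 weeks, then visual % efficacy vs untreated controls (100% = plants dead, 0% = like control).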

[16] = test system: ALOMY: Alopecurus myosuroides; test: Pre-emergence herbicide efficacy at 1280 g/ha, ALOMY; conditions: visual scoring after about 3 weeks vs untreated controls
From the text: (§4) Seeds of mono- and dicotyledonous weed plants were placed in plastic pots in sandy loam soil (doubly sown with one species each of mono- or dicotyledonous weed plants per pot) and covered with soil. The compounds of the invention, formulated in the form of wettable powders (WP) or as emulsion concentrates (EC), were then applied to the surface of the covering soil as aqueous suspension or emulsion with addition of 0.5% additive at a water application rate of 600 litres per hectare (converted). After the treatment, the pots were placed in a greenhouse and kept under good growth conditions for the test plants. After about 3 weeks, the efficacy of the preparations was scored visually in comparison with untreated controls as percentages. For example, 100% activity=the plants have died, 0% activity=like control plants. Tables C1 to C12 below show the effects of selected compounds of the general formula (I) according to Table 1 on various harmful plants and at an application rate corresponding to 1280 g/ha, which were obtained by the trial procedure specified above.

[17] = test system: AMARE: Amaranthus retroflexus; test: Pre-emergence herbicide efficacy at 1280 g/ha, AMARE; conditions: visual scoring after about 3 weeks vs untreated controls
In short: as §3

[18] = test system: DIGSA: Digitaria sanguinalis; test: Pre-emergence herbicide efficacy at 1280 g/ha, DIGSA; conditions: visual scoring after about 3 weeks vs untreated controls
In short: as §3

[19] = test system: ECHCG: Echinochloa crus-galli; test: Pre-emergence herbicide efficacy at 1280 g/ha, ECHCG; conditions: visual scoring after about 3 weeks vs untreated controls
In short: as §3

[20] = test system: KCHSC: Kochia scoparia; test: Pre-emergence herbicide efficacy at 1280 g/ha, KCHSC; conditions: visual scoring after about 3 weeks vs untreated controls
In short: as §3

[21] = test system: LOLRI: Lolium rigidum; test: Pre-emergence herbicide efficacy at 1280 g/ha, LOLRI; conditions: visual scoring after about 3 weeks vs untreated controls
From the text: as §4

[22] = test system: MATIN: Matricaria inodora; test: Pre-emergence herbicide efficacy at 1280 g/ha, MATIN; conditions: visual scoring after about 3 weeks vs untreated controls
From the text: as §4

[23] = test system: POAAN: Poa annua; test: Pre-emergence herbicide efficacy at 1280 g/ha, POAAN; conditions: visual scoring after about 3 weeks vs untreated controls
In short: as §3

[24] = test system: SETVI: Setaria viridis; test: Pre-emergence herbicide efficacy at 1280 g/ha, SETVI; conditions: visual scoring vs untreated controls
In short: as §3

[25] = test system: STEME: Stellaria media; test: Pre-emergence herbicide efficacy at 1280 g/ha, STEME; conditions: visual scoring vs untreated controls
In short: as §3

[26] = test system: VERPE: Veronica persica; test: Pre-emergence herbicide efficacy at 1280 g/ha, VERPE; conditions: visual scoring vs untreated controls
In short: as §3

[27] = test system: VERPE: Veronica persica; test: Post-emergence herbicidal efficacy at 80 g/ha, VERPE; conditions: visual rating about 3 weeks after treatment vs untreated controls
Protocol: Seeds of monocotyledonous and dicotyledonous weeds and crop plants were placed in sandy loam in plastic or organic planting pots, covered with soil and cultivated in a greenhouse under controlled growth conditions. 2 to 3 weeks after sowing, the test plants were treated at the one-leaf stage. The compounds of the invention, formulated in the form of wettable powders (WP) or as emulsion concentrates (EC), were then sprayed onto the green parts of the plants as aqueous suspension or emulsion with addition of 0.5% additive at a water application rate of 600 l/ha (converted). After the test plants had been kept in the greenhouse under optimum growth conditions for about 3 weeks, the activity of the preparations was rated visually in comparison to untreated controls. For example, 100% activity=the plants have died, 0% activity=like control plants. Tables B1 to B10 below show the effects of selected compounds of the general formula (I) according to Table 1 on various harmful plants and an application rate corresponding to 80 g/ha, which were obtained by the experimental procedure mentioned above.

[28] = test system: DIGSA: Digitaria sanguinalis; test: Pre-emergence herbicide efficacy at 80 g/ha, DIGSA; conditions: scored visually after about 3 weeks
From the text: as §1

| SMILES | Post-emergence efficacy against AMARE [1] | Pre-emergence efficacy against AMARE in % [3] | Pre-emergence efficacy against POLCO in % [4] | Post-emergence efficacy at 1280 g/ha against AMARE in % [7] | Post-emergence efficacy against KCHSC [10] | Post-emergence efficacy against VERPE [14] | Pre-emergence efficacy against ABUTH [15] | Pre-emergence efficacy against AMARE [17] | Pre-emergence efficacy against DIGSA [18] | Pre-emergence efficacy against ECHCG [19] | Pre-emergence efficacy against KCHSC [20] | Pre-emergence efficacy against MATIN [22] | Pre-emergence efficacy against POAAN [23] | Pre-emergence efficacy against SETVI in % [24] | Pre-emergence efficacy against STEME in % [25] | Pre-emergence efficacy against VERPE in % [26] | also measured |
| --- | --- | --- | --- | --- | --- | --- | --- | --- | --- | --- | --- | --- | --- | --- | --- | --- | --- |
| Fc1cnc(Cc2ccccc2-c2cc(C(F)F)no2)nc1 [Example 1-135] | 100% | 100% | 90% | – | – | – | – | – | – | – | – | – | – | – | – | – | Pre-emergence efficacy against ABUTH in % [2]: 95%; Pre-emergence efficacy against VERPE in % [5]: 95% |
| Fc1cnc(Cc2cccc(F)c2Oc2ncc(Cl)cn2)nc1 [Example 1-154] | 90% | 100% | 80% | – | – | – | – | – | – | – | – | – | – | – | – | – | – |
| Clc1cnc(Cc2c(Br)cccc2Oc2ncc(Cl)cn2)nc1 [Example 1-53] | – | – | – | 100% | 100% | 100% | 100% | 100% | 100% | 100% | 100% | 100% | 100% | 100% | 100% | 100% | Post-emergence efficacy at 1280 g/ha against ABUTH in % [6]: 100%; Post-emergence efficacy at 1280 g/ha against DIGSA in % [8]: 90%; Post-emergence efficacy at 1280 g/ha against ECHCG in % [9]: 100%; Post-emergence efficacy against POAAN [11]: 100%; Post-emergence efficacy against SETVI [12]: 100%; Post-emergence efficacy against STEME [13]: 100%; Pre-emergence efficacy against ALOMY [16]: 100%; Pre-emergence efficacy against LOLRI [21]: 100% |
| Fc1cccc(Oc2ncc(Cl)cn2)c1Cc1ncc(Cl)cn1 [Example 1-51] | 100% | 90% | – | 100% | 90% | 100% | 100% | 100% | 100% | 90% | 100% | 100% | 90% | 100% | 100% | 100% | Post-emergence efficacy against VERPE [27]: 100%; Pre-emergence efficacy against VERPE in % [5]: 80% |
| N#Cc1cccc(Cc2ncc(Cl)cn2)c1-n1cc(C(F)(F)F)cn1 [Example 1-45] | – | 100% | – | 100% | 100% | 100% | 100% | 100% | 100% | 100% | 100% | 90% | 90% | 100% | 100% | 100% | Post-emergence efficacy at 1280 g/ha against ABUTH in % [6]: 90%; Post-emergence efficacy at 1280 g/ha against DIGSA in % [8]: 90%; Post-emergence efficacy against POAAN [11]: 90%; Post-emergence efficacy against SETVI [12]: 90%; Post-emergence efficacy against STEME [13]: 90%; Pre-emergence efficacy against LOLRI [21]: 90% |
| Fc1cnc(Cc2cccc(Cl)c2Oc2ncc(Cl)cn2)nc1 [Example 1-157] | 80% | 100% | – | – | – | – | – | – | – | – | – | – | – | – | – | – | Pre-emergence efficacy against DIGSA in % [28]: 80% |
| Cc1cccc(Cc2ncc(Cl)cn2)c1Oc1ncc(F)cn1 [Example 1-165] | – | – | 80% | – | – | – | – | – | – | – | – | – | – | – | – | – | Pre-emergence efficacy against DIGSA in % [28]: 80% |
| Fc1cnc(Oc2cccc(F)c2Cc2ncc(Cl)cn2)nc1 [Example 1-52] | 80% | 100% | – | 100% | 90% | 90% | 90% | 100% | 100% | 90% | 100% | 100% | 100% | 100% | 100% | 90% | Pre-emergence efficacy against ABUTH in % [2]: 90% |
| Cc1cccc(Cc2ncc(F)cn2)c1Oc1ncc(F)cn1 [Example 1-162] | – | 90% | 80% | – | – | – | – | – | – | – | – | – | – | – | – | – | – |
| O=S(=O)(CCCC(F)(F)F)Oc1c(F)cccc1Cc1ncc(Cl)cn1 [Example 1-14] | 95% | 90% | – | – | – | – | – | – | – | – | – | – | – | – | – | – | Post-emergence efficacy against VERPE [27]: 95% |
| Fc1ccc(Oc2ccccc2Cc2ncc(Cl)cn2)cc1 [Example 1-29] | – | – | – | 90% | 90% | 100% | 100% | 100% | 100% | 100% | – | 90% | 100% | 100% | 90% | 100% | Post-emergence efficacy at 1280 g/ha against ABUTH in % [6]: 90%; Post-emergence efficacy at 1280 g/ha against DIGSA in % [8]: 90%; Post-emergence efficacy against POAAN [11]: 90%; Post-emergence efficacy against SETVI [12]: 90%; Pre-emergence efficacy against LOLRI [21]: 100% |
